{"source": "patent US6296870A", "about": "“Liposomes containing active agents” (Duke University, priority 1998, dated 2001)", "key": {"[1]": {"conditions": "small angle neutron scattering; cited from earlier work"}, "[2]": {"assay": "MOPC uptake into and desorption from single vesicles, micropipet lysolipid exchange", "format": "physicochemical", "description": "I. du Pont de Nemours and Co.) disc and the chloroform evaporated under nitrogen. Final traces of solvent were removed by placing the disc in an evacuated desiccator for 2 hours (Needham and Nunn, Biophys. J. 58:997 (1990)). The so-formed dried lipid layers were prehydrated with water vapor in a nitrogen carrier gas and then fully hydrated overnight in a sucrose solution at 40° C. […] Both the pure SOPC and SOPC/PEG(750)-lipid vesicles were re-suspended in a glucose solution of 205 mOsm for use in micromanipulation experiments as described below. […] The microscope images were recorded using a COHU CCD camera. […] The pipettes were connected to a manometer system that allowed the applied pressures to be changed and measured to an accuracy of 2 microatmospheres. The micropipet suction pressures were measured by differential transducer (Validyne DP15-24). The measured pressures together with real time were multiplexed on the recorded images with a multiplexer (Model 401, Vista Electronics, La Mesa, Calif., USA). The recorded images were used to measure the change of the vesicle projection length inside the holding pipet during uptake and desorption of lysolecithin, and to calculate the membrane tension. […] The vesicle projection length (Lp) inside the holding pipet is measured and the effects of various solutions on the Lp of the test vesicle are compared. […]"}, "[3]": {"assay": "Critical micelle concentration by DPH fluorescence", "format": "physicochemical", "description": "The critical micelle concentration (CMC) of the lysolipid was measured independently by DPH fluorescence following the method in Chattopadhyay and London, Analytical Biochem. 139:408 (1984). Briefly, a series of solutions containing increasing concentrations of MOPC in the range 10^-7 M to 10^-4 M were prepared. Diphenyl hexatriene (DPH), a lipid soluble fluorescent dye, was added to these samples and the intensity of fluorescence was measured by spectrofluorimeter at absorption and emission wavelengths of 358 nm and 430 nm, respectively. The CMC was determined by plotting the fluorescence intensity (in arbitrary units) verses concentration of MOPC solutions, made up by diluting a 100 mM stock solution of MOPC (solubilized initially by Tetrahydrofuran) in water (Chattopadhyay and London, Analytical Biochem. 139:408 (1984)).\nThis second trial used SOPC +20 mol % PEG2000 DSPE (0.2 mg/ml, 2×10^-4 M total lipid) for the lipid vesicles and 1 mM PEG2000 DSPE as micellar suspension. […] It was as though the PEG-lipids at this high concentration had formed a gel inside the vesicles."}, "[4]": {"assay": "Mechanical tests of bilayer tensile strength", "format": "physicochemical", "description": "(3) Mechanical tests of bilayer tensile strength were carried out on vesicles that contained 0-20 mol % PEG(750)-lipid as a function of MOPC uptake.\nAs the bilayer takes up more and more of a water-soluble second component (e.g., bile acid or MOPC) it is expected that it will become weaker and softer (Evans et al., In Bile Acids in Gasteroenterology Basic and Clinical Advances, Hoffman et al. (Eds.) Kluwer Academic Publishers, Doderecht, Boston and London, pp. 59-68 (1994); Needham and Zhelev, Ann. Biomed. Egr. 23:287 (1995); Zhelev, Biophys J. 71:257 (1996)). To test this model, the tensile rupture strength of vesicles containing various amounts of MOPC at stationary equilibrium was measured. […] To obtain the wide range of MOPC bilayer concentrations, several different lipid, PEG-lipid and MOPC solution concentrations were used (0.1 μM MOPC; 1.0 μM MOPC; 20% PEG-lipid and 100 μM MOPC; 4% PEG-lipid and 100 μM MOPC; and 1% PEG-lipid and 100 μM MOPC) as indicated on the plot next to each data point in FIG. 6.\nPEG-lipids were used in some but not all of these vesicle tests. Whether the incorporation of the PEG-lipids (DMPE-(PEG)750) themselves had any effect on the tensile strength of the bilayer vesicles was also investigated. […]"}, "[5]": {"conditions": "unmodified egg PC membranes, flow rate 300 μm/s; cited from earlier work"}, "[6]": {"assay": "TAXOL solubilized in MOPC micelle suspension", "format": "physicochemical", "description": "For concentrations higher than 50 micromolar, samples were diluted in methanol and the original concentrations were back-calculated.\nThese components were mixed together in glass culture tubes, and the mixture was dried and kept under vacuum for approximately 15 hours to evaporate the solvent. MOPC was chosen because it has an acyl chain composition that matches the di-chain phospholipid, stearoyloleoylphosphatidylcholine, that was used to form the lipid bilayers of encapsulating liposomes, as discussed below. […] Surfactants with high CMCs (e.g., in the mM range) readily dissolve lipid membranes, even when the membranes contain cholesterol."}, "[7]": {"assay": "Solubility of TAXOL in water and organic solvents", "format": "physicochemical", "conditions": "hexane or tetradecane"}, "[8]": {"conditions": "cited from earlier work"}}, "note": "Entries after “also recorded” stand apart in the source; their conditions may differ.", "data": [{"compound": "CCCCCCC(=O)OCC(COP(=O)([O-])OCC[N+](C)(C)C)OC(=O)CCCCCC", "note": "(stereo not drawn) [diheptanoylphosphatidylcholine]", "values": [{"measurement": "micelle aggregation number", "setting": "[1]", "value": 27}]}, {"compound": "CCCCCCCC/C=C\\CCCCCCCC(=O)OC[C@@H](O)COP(=O)([O-])OCC[N+](C)(C)C", "note": "[MOPC, mono-oleoyl-phosphatidylcholine]", "values": [{"measurement": "aggregation number in membrane", "setting": "[2]; above the CMC", "value": "about 12"}, {"measurement": "overall rate of MOPC desorption", "setting": "[2]; flow rate 400 μm/s, all PEG(750)-lipid concentrations, 5 vesicles", "value": "0.4 ± 0.2", "unit": "s⁻¹"}, {"measurement": "critical micelle concentration (CMC)", "setting": "[3]", "value": 3, "unit": "µM"}, {"measurement": "tensile rupture strength, effect", "setting": "[4]", "value": "decrease with increasing MOPC concentration"}, {"measurement": "rate of MOPC desorption", "setting": "[5]", "value": 0.2, "unit": "s⁻¹"}]}, {"compound": "CC(=O)O[C@H]1C(=O)[C@@]2(C)[C@H]([C@H](OC(=O)c3ccccc3)[C@]3(O)C[C@H](OC(=O)[C@H](O)[C@@H](NC(=O)c4ccccc4)c4ccccc4)C(C)=C1C3(C)C)[C@]1(OC(C)=O)CO[C@@H]1C[C@@H]2O", "note": "[TAXOL®]", "values": [{"measurement": "stability of TAXOL in micelle suspension", "setting": "[6]; 0.2 mM TAXOL, 5 mM MOPC", "value": "at least 24 hours"}, {"measurement": "TAXOL solubilized in MOPC micelles", "setting": "[6]; 5 mM MOPC", "value": "up to 1 mM"}, {"measurement": "increase of solubility limit over aqueous solubility", "setting": "[6]; 20 mM LPC", "value": "about 4000 times"}, {"measurement": "solubility limit in aqueous media in presence of LPC", "setting": "[6]; 20 mM LPC", "value": 4, "unit": "mM"}, {"measurement": "moles TAXOL solubilized per mole MOPC micelle", "setting": "[6]; MOPC micelle, data not shown", "value": 1, "unit": "mole TAXOL per mole MOPC"}, {"measurement": "solubility in alkanes / hexane", "setting": "[7]", "value": "not soluble at all in alkanes such as hexane or tetradecane; also recorded: largely insoluble in hexane"}, {"measurement": "water solubility of TAXOL", "setting": "[8]", "value": "about 1 micromolar"}]}, {"compound": "CCCCCC(=O)OCC(COP(=O)([O-])OCC[N+](C)(C)C)OC(=O)CCCCC", "note": "(stereo not drawn) [dicaproylphosphatidylcholine]", "values": [{"measurement": "micelle aggregation number", "setting": "[1]", "value": 19}]}, {"compound": "1,2-Dimyristoyl-sn-Glycero-3-Phosphoethanolamine -N-PEG-750 [PEG(750)-lipid]", "values": [{"measurement": "tensile rupture strength, effect", "setting": "[4]", "value": "did not reduce the tensile strength significantly, up to 20 mol % PEG-lipid"}]}]}
